Test results: PubChem BioAssay (NCI)
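Protocol summary: plate cells (96-well), add compound at 5 concentrations, incubate 48 h, interpolate endpoints linearly. At the TGI there is no net growth.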

Assays:
Assay in all cases: growth of human tumour cells (NCI), 48 h
OVCAR-4 ovarian = tested on: OVCAR-4 ovarian
OVCAR-8 ovarian = tested on: OVCAR-8 ovarian
RXF 393 renal = tested on: RXF 393 renal
UACC-257 melanoma = tested on: UACC-257 melanoma
KM12 colon = tested on: KM12 colon
SK-OV-3 ovarian = tested on: SK-OV-3 ovarian
HCT-116 colon = tested on: HCT-116 colon
HL-60(TB) leukemia = tested on: HL-60(TB) leukemia
A549 NSCLC = tested on: A549 NSCLC
MALME-3M melanoma = tested on: MALME-3M melanoma
OVCAR-3 ovarian = tested on: OVCAR-3 ovarian
TK-10 renal = tested on: TK-10 renal
DLD-1 colon = tested on: DLD-1 colon
SF-268 CNS = tested on: SF-268 CNS
HCC-2998 colon = tested on: HCC-2998 colon
MCF7 breast = tested on: MCF7 breast
PC-3 prostate = tested on: PC-3 prostate
T-47D breast = tested on: T-47D breast
NCI/ADR-RES ovarian = tested on: NCI/ADR-RES ovarian
MDA-MB-231 breast = tested on: MDA-MB-231 breast

## CN1CCc2ccccc2C(C(=O)c2ccc3c(c2)OCO3)C1=O (configuration not stated)
OVCAR-4 ovarian
  TGI: > 100 µM
OVCAR-8 ovarian
  TGI: > 100 µM
RXF 393 renal
  TGI: > 100 µM
UACC-257 melanoma
  TGI: > 100 µM
KM12 colon
  TGI: > 100 µM
SK-OV-3 ovarian
  TGI: > 100 µM
HCT-116 colon
  TGI: > 100 µM
HL-60(TB) leukemia
  TGI: > 100 µM
A549 NSCLC
  TGI: > 100 µM
MALME-3M melanoma
  TGI: > 100 µM
OVCAR-3 ovarian
  TGI: > 100 µM
TK-10 renal
  TGI: > 100 µM
DLD-1 colon
  TGI: > 100 µM
SF-268 CNS
  TGI: > 100 µM

## CCCNCCCCC(NC(C)=O)C(=O)NCc1ccccc1 (configuration not stated)
OVCAR-4 ovarian
  TGI: > 100 µM
OVCAR-8 ovarian
  TGI: > 100 µM
RXF 393 renal
  TGI: > 100 µM
UACC-257 melanoma
  TGI: > 100 µM
KM12 colon
  TGI: > 100 µM
SK-OV-3 ovarian
  TGI: > 100 µM
HCT-116 colon
  TGI: > 100 µM
A549 NSCLC
  TGI: > 100 µM
MALME-3M melanoma
  TGI: > 100 µM
OVCAR-3 ovarian
  TGI: > 100 µM
TK-10 renal
  TGI: > 100 µM
HCC-2998 colon
  TGI: > 100 µM
DLD-1 colon
  TGI: > 100 µM
SF-268 CNS
  TGI: > 100 µM

## O=[N+]([O-])c1cccc(Nc2nc(Cl)nc(Cl)n2)c1
OVCAR-4 ovarian
  TGI: > 100 µM
OVCAR-8 ovarian
  TGI: > 100 µM
UACC-257 melanoma
  TGI: > 100 µM
KM12 colon
  TGI: > 100 µM
SK-OV-3 ovarian
  TGI: > 100 µM
HCT-116 colon
  TGI: > 100 µM
A549 NSCLC
  TGI: > 100 µM
MALME-3M melanoma
  TGI: > 100 µM
OVCAR-3 ovarian
  TGI: > 100 µM
HCC-2998 colon
  TGI: > 100 µM
DLD-1 colon
  TGI: > 100 µM
SF-268 CNS
  TGI: > 100 µM

## COC(=O)/C=C(\C)CCC1SC1(C)C (configuration not stated)
OVCAR-4 ovarian
  TGI: > 100 µM
OVCAR-8 ovarian
  TGI: > 100 µM
RXF 393 renal
  TGI: > 100 µM
UACC-257 melanoma
  TGI: > 100 µM
KM12 colon
  TGI: > 100 µM
SK-OV-3 ovarian
  TGI: > 100 µM
HCT-116 colon
  TGI: > 100 µM
HL-60(TB) leukemia
  TGI: > 100 µM
A549 NSCLC
  TGI: > 100 µM
MALME-3M melanoma
  TGI: > 100 µM
TK-10 renal
  TGI: > 100 µM
HCC-2998 colon
  TGI: > 100 µM
DLD-1 colon
  TGI: > 100 µM
SF-268 CNS
  TGI: > 100 µM

## O=C1NC2(CCNCC2)Oc2ccccc21
OVCAR-4 ovarian
  TGI: > 100 µM
OVCAR-8 ovarian
  TGI: > 100 µM
MCF7 breast
  TGI: > 100 µM
RXF 393 renal
  TGI: > 100 µM
UACC-257 melanoma
  TGI: > 100 µM
KM12 colon
  TGI: > 100 µM
SK-OV-3 ovarian
  TGI: > 100 µM
HCT-116 colon
  TGI: > 100 µM
HL-60(TB) leukemia
  TGI: > 100 µM
A549 NSCLC
  TGI: > 100 µM
MALME-3M melanoma
  TGI: > 100 µM
PC-3 prostate
  TGI: > 100 µM
OVCAR-3 ovarian
  TGI: > 100 µM
TK-10 renal
  TGI: > 100 µM
T-47D breast
  TGI: > 100 µM
HCC-2998 colon
  TGI: > 100 µM
NCI/ADR-RES ovarian
  TGI: > 100 µM
MDA-MB-231 breast
  TGI: > 100 µM
SF-268 CNS
  TGI: > 100 µM

## COc1cc2cc(C(=O)N3CC(CCl)c4ccc([N+](C)(C)Cc5ccccc5[N+](=O)[O-])cc43)[nH]c2c(OC)c1OC (configuration not stated)
OVCAR-4 ovarian
  TGI: 12.9 µM
OVCAR-8 ovarian
  TGI: > 25.5 µM
MCF7 breast
  TGI: > 100 µM
RXF 393 renal
  TGI: 2.11 µM
UACC-257 melanoma
  TGI: 6.75 µM
KM12 colon
  TGI: 10.2 µM
SK-OV-3 ovarian
  TGI: 30.1 µM
HCT-116 colon
  TGI: > 100 µM
HL-60(TB) leukemia
  TGI: > 100 µM
A549 NSCLC
  TGI: > 100 µM
MALME-3M melanoma
  TGI: 3.59 µM
PC-3 prostate
  TGI: 25.9 µM
OVCAR-3 ovarian
  TGI: > 24.6 µM
TK-10 renal
  TGI: > 100 µM
T-47D breast
  TGI: 12.5 µM
HCC-2998 colon
  TGI: 9 µM
NCI/ADR-RES ovarian
  TGI: 34.2 µM
MDA-MB-231 breast
  TGI: > 31.9 µM
SF-268 CNS
  TGI: 9.1 µM
